Patent US11666533B2, “Emulsion formulations of multikinase inhibitors” (Cloudbreak Therapeutics, LLC, priority 2018, dated 2023)
Values after ≈ are worked out from the molar mass of the structure shown.

What was measured:
[1] = Solubilizer screen for nintedanib (Example 3); format: physicochemical; settings: for pH: pH of filtrate
Method: Tare 1.5 mL Eppendorf tube 2. […] Add solubilizer and record weight 4. Add water pH 5 (except F3 & F4) and record weight 5. Beadbeater mix for 120 seconds […] Place on rotating mixer for overnight at ambient temperature 7. Filter through 0.2 μm SPIN-X centrifuge filter 8. Measure pH of filtrate 9. Assay filtrate using CBT-001 standard solution

[2] = Solubility of nintedanib in a representative emulsion system (F70); format: physicochemical; settings: aqueous with cosolvent or surfactant or cyclodextrin; emulsion system: castor oil 1, polysorbate 80 1, polyoxyl-35 castor oil 2, water 95, none in Table 6
Source text: Various emulsion systems were identified for investigation based on the solubilizer results.

COC(=O)c1ccc2c(c1)NC(=O)/C2=C(\Nc1ccc(N(C)C(=O)CN2CCN(C)CC2)cc1)c1ccccc1 [nintedanib]
pH ([1]; solubilizer BZA): 5.6
pH ([1]; solubilizer BZK): 5.6
pH ([1]; solubilizer EtOH): 6.1
pH ([1]; solubilizer PEG 400): 5.6
pH ([1]; solubilizer PEG 8000): 6.0
pH ([1]; solubilizer PG): 6.0
pH ([1]; solubilizer PLXMR 188): 6.5
pH ([1]; solubilizer PLXMR 407): 6.3
pH ([1]; solubilizer polysorbate 20): 6.6
pH ([1]; solubilizer polysorbate 80): 6.7
Nintedanib solubility ([1]; solubilizer BZA (1% benzyl alcohol in water, F-1)): 0.01 mg/g
Nintedanib solubility ([1]; solubilizer BZK (1% in water, F-5)): 0.20 mg/g
Nintedanib solubility ([1]; solubilizer Castor oil (99.5%, F-3)): 0.37 mg/g
Nintedanib solubility ([1]; solubilizer EtOH (1% ethanol in water, F-2)): 0.01 mg/g
Nintedanib solubility ([1]; solubilizer Mineral oil (99.5%, F-4)): 0.00 mg/g
Nintedanib solubility ([1]; solubilizer PEG 400 (5% in water, F-10)): 0.17 mg/g
Nintedanib solubility ([1]; solubilizer PEG 8000 (2% in water, F-11)): 0.01 mg/g
Nintedanib solubility ([1]; solubilizer PG (1% propylene glycol in water, F-12)): 0.01 mg/g
Nintedanib solubility ([1]; solubilizer PLXMR 188 (1% Poloxamer 188 in water, F-8)): 0.01 mg/g
Nintedanib solubility ([1]; solubilizer PLXMR 407 (1% Poloxamer 407 in water, F-9)): 0.01 mg/g
Nintedanib solubility ([1]; solubilizer polysorbate 20 (1% in water, F-6)): 0.06 mg/g
Nintedanib solubility ([1]; solubilizer polysorbate 80 (1% in water, F-7)): 0.25 mg/g
solubility [2]: 3000 to 5000 µg/mL (≈ 5.56 to 9.27 mM)
